The text below walks through data of PubChem BioAssay AID248 (DTP/NCI, 2004).

SMILES strings stand for the structures. Values joined by “and” are separate entries in the source; they are usually repeats but may differ in a detail not shown here. Equal values may be shown once. Toxic doses and inconclusive results are not listed.

For this assay, the system named is L1210 leukemia ip in BDF1 mice, survival T/C. Kind of assay: NCI In Vivo Anticancer Drug Screen. Data for tumor model L1210 Leukemia (intraperitoneal) in B6D2F1 (BDF1) mice. Particulars: endpoint: mean survival time, higher = longer survival. In a few lines:
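Transplantable tumor model; survival measured in treated vs vehicle control mice. Value = treated/control.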

Setting [1] is: dose: 100.0 mg/kg/injection, schedule: Q01DX001 (ip), vehicle: saline with Tween-80.
Setting [2] is: dose: 200.0 mg/kg/injection, schedule: Q01DX001 (ip), vehicle: saline with Tween-80.
[3] abbreviates: dose: 200.0 mg/kg/injection, schedule: Q01DX001 (ip), vehicle: saline.
Setting [4] is: dose: 100.0 mg/kg/injection, schedule: Q01DX009 (ip), vehicle: saline with Tween-80.
[5] abbreviates: dose: 200.0 mg/kg/injection, schedule: Q01DX009 (ip), vehicle: saline with Tween-80.
Setting [6] is: dose: 100.0 mg/kg/injection, schedule: Q04DX003 (ip), vehicle: saline with Tween-80.
[7] abbreviates: dose: 200.0 mg/kg/injection, schedule: Q04DX003 (ip), vehicle: saline with Tween-80.
The mark [8] stands for this setting: dose: 400.0 mg/kg/injection, schedule: Q04DX003 (ip), vehicle: saline with Tween-80.
[9] abbreviates: dose: 100.0 mg/kg/injection, schedule: Q01DX001 (ip), vehicle: saline.
Setting [10] is: dose: 100.0 mg/kg/injection, schedule: Q01DX009 (ip), vehicle: saline.
Where [11] appears, read: dose: 200.0 mg/kg/injection, schedule: Q01DX009 (ip), vehicle: saline.
Where [12] appears, read: dose: 400.0 mg/kg/injection, schedule: Q01DX009 (ip), vehicle: saline.
Where [13] appears, read: dose: 100.0 mg/kg/injection, schedule: Q04DX003 (ip), vehicle: saline.
[14] abbreviates: dose: 200.0 mg/kg/injection, schedule: Q04DX003 (ip), vehicle: saline.
Where [15] appears, read: dose: 400.0 mg/kg/injection, schedule: Q04DX003 (ip), vehicle: saline.

In the case of `Cn1cnc([N+](=O)[O-])c1Sc1ncnc2nc[nH]c12`, the T/C reads like this: (dose: 8.0 mg/kg/injection, schedule: Q01DX Z (ip), vehicle: methylcellulose (MC)) 109 % of control; (dose: 12.0 mg/kg/injection, schedule: Q01DX Z (ip), vehicle: methylcellulose (MC)) 112 % of control; (dose: 17.0 mg/kg/injection, schedule: Q01DX Z (ip), vehicle: methylcellulose (MC)) 117 % of control; (dose: 25.0 mg/kg/injection, schedule: Q01DX Z (ip), vehicle: methylcellulose (MC)) 104 % of control; (dose: 62.0 mg/kg/injection, schedule: Q01DX001 (ip), vehicle: carboxymethylcellulose (CMC)) 124 % of control; (dose: 250.0 mg/kg/injection, schedule: Q01DX001 (ip), vehicle: carboxymethylcellulose (CMC)) 150 % of control. Where the note is “dose: 500.0 mg/kg/injection, schedule: Q01DX001 (ip), vehicle: carboxymethylcellulose (CMC)”, the T/C is 165 % of control.

`CC(C)=CCCC1(C)C=Cc2c(c(C)cc3c2[nH]c2ccccc23)O1` (stereo not given): the T/C is 96 % of control (dose: 25.0 mg/kg/injection, schedule: Q04DX002 (ip), vehicle: gum acacia); 89 % of control (dose: 50.0 mg/kg/injection, schedule: Q04DX002 (ip), vehicle: gum acacia); 99 % of control (dose: 100.0 mg/kg/injection, schedule: Q04DX002 (ip), vehicle: gum acacia).

Consider `Cc1nc(N)sc1N=Nc1ccccc1Br`, for which the T/C was 103 % of control (dose: 75.0 mg/kg/injection, schedule: Q01DX001 (ip), vehicle: saline) and 108 % of control (dose: 150.0 mg/kg/injection, schedule: Q01DX001 (ip), vehicle: saline).

In the case of `Cc1cc(C)c2c(C#N)cn(-c3cccc([N+](=O)[O-])c3)c2n1`, the T/C by setting is: (dose: 50.0 mg/kg/injection, schedule: Q01DX001 (ip), vehicle: saline with Tween-80) 98 % of control; under setting [1], 103 % of control; under setting [2], 95 % of control; under setting [3], 87 % of control.

For the compound `O=C(c1ccccc1)C(c1ccccc1)C(C[N+](=O)[O-])c1ccccc1` (stereo not given), the T/C was 88 % of control under setting [4]; 90 % of control under setting [5]; 96 % of control (dose: 400.0 mg/kg/injection, schedule: Q01DX009 (ip), vehicle: saline with Tween-80).

`O=C(Nc1ccc(I)cc1)Nc1ccc(Cl)cc1[N+](=O)[O-]`: the T/C is 96 % of control under setting [1]; 97 % of control and 92 % of control under setting [4]; 98 % of control and 91 % of control (dose: 100.0 mg/kg/injection, schedule: Q04DX002 (ip), vehicle: saline with Tween-80); 93 % of control under setting [6]; 90 % of control under setting [2]; 87 % of control under setting [5]. The T/C runs as follows: (dose: 200.0 mg/kg/injection, schedule: Q04DX002 (ip), vehicle: saline with Tween-80) 94 % of control and 98 % of control; under setting [7], 97 % of control; (dose: 400.0 mg/kg/injection, schedule: Q01DX001 (ip), vehicle: saline with Tween-80) 87 % of control; (dose: 400.0 mg/kg/injection, schedule: Q04DX002 (ip), vehicle: saline with Tween-80) 93 % of control and 91 % of control; under setting [8], 95 % of control.

In the case of `COc1cccc(C(=O)O)c1N`, the T/C was 102 % of control (dose: 25.0 mg/kg/injection, schedule: Q01DX001 (ip), vehicle: Klucel (hydroxypropylcellulose) (HPC)); 98 % of control (dose: 50.0 mg/kg/injection, schedule: Q01DX001 (ip), vehicle: Klucel (hydroxypropylcellulose) (HPC)); 91 % of control (dose: 100.0 mg/kg/injection, schedule: Q01DX001 (ip), vehicle: Klucel (hydroxypropylcellulose) (HPC)).

Turning to `O=C(NNC(=O)OCc1ccccc1)OCc1ccccc1`, the T/C is 104 % of control (dose: 100.0 mg/kg/injection, schedule: Q01DX009 (ip), vehicle: Klucel (hydroxypropylcellulose) (HPC)); 97 % of control (dose: 100.0 mg/kg/injection, schedule: Q04DX003 (ip), vehicle: Klucel (hydroxypropylcellulose) (HPC)); 113 % of control (dose: 200.0 mg/kg/injection, schedule: Q01DX009 (ip), vehicle: Klucel (hydroxypropylcellulose) (HPC)); 97 % of control (dose: 200.0 mg/kg/injection, schedule: Q04DX003 (ip), vehicle: Klucel (hydroxypropylcellulose) (HPC)); 97 % of control (dose: 400.0 mg/kg/injection, schedule: Q04DX003 (ip), vehicle: Klucel (hydroxypropylcellulose) (HPC)).

Regarding `CCOC(=O)COc1ccc(N2C(N)=NC(N)=NC2(C)C)cc1`, the T/C reads like this: under setting [9], 107 % of control; under setting [10], 117 % of control; under setting [3], 102 % of control; under setting [11], 98 % of control; (dose: 400.0 mg/kg/injection, schedule: Q01DX001 (ip), vehicle: saline) 97 % of control; under setting [12], 104 % of control.

In the case of `C=CC(C)(O)CCC1C(=C)C(O)CC2C(C)(C)CCCC12C` (stereo not given), the T/C is, setting by setting: under setting [10], 100 % of control; under setting [13], 105 % of control; under setting [11], 100 % of control; under setting [14], 95 % of control; under setting [12], 94 % of control; under setting [15], 90 % of control.

Consider `O=C(Cl)OCCOCCOC(=O)Cl`, for which the T/C under setting [13] was 86 % of control; the T/C under setting [11] was 89 % of control; the T/C under setting [14] was 94 % of control; the T/C under setting [12] is 90 % of control; the T/C under setting [15] is 92 % of control.

With `c1ccc(C2(c3ccccc3)CC([P+](c3ccccc3)(c3ccccc3)c3ccccc3)=NN2CC[P+](c2ccccc2)(c2ccccc2)c2ccccc2)cc1`, the T/C was 107 % of control (dose: 1.56 mg/kg/injection, schedule: Q01DX001 (ip), vehicle: saline); 91 % of control (dose: 3.12 mg/kg/injection, schedule: Q01DX001 (ip), vehicle: saline); 108 % of control and 91 % of control (dose: 6.25 mg/kg/injection, schedule: Q01DX001 (ip), vehicle: saline).

Take `CN1CCN(c2c3c(nc4ccccc24)CCCC3)CC1`: under setting [9], the T/C was 96 % of control.

On to `[CH3][Sb]([CH3])([CH3])([O]C(=O)CBr)[O]C(=O)CBr`, for which the T/C (dose: 12.5 mg/kg/injection, schedule: Q04DX003 (ip), vehicle: saline with Tween-80) was 102 % of control; the T/C (dose: 25.0 mg/kg/injection, schedule: Q04DX003 (ip), vehicle: saline with Tween-80) was 87 % of control; the T/C (dose: 50.0 mg/kg/injection, schedule: Q04DX003 (ip), vehicle: saline with Tween-80) was 91 % of control.

With `O=C1c2ccccc2CCC1C1(O)C(=O)Nc2ccccc21` (stereo not given), the T/C was 104 % of control (dose: 50.0 mg/kg/injection, schedule: Q01DX009 (ip), vehicle: saline with Tween-80); 101 % of control under setting [4]; 93 % of control under setting [5].

As for `C=CC(COC(C)=O)N1CC1` (stereo not given) (tested in a mixture with another compound), the T/C was 166 % of control (dose: 30.0 mg/kg/injection, schedule: Q04DX003 (ip), vehicle: saline) and 107 % of control (dose: 60.0 mg/kg/injection, schedule: Q04DX003 (ip), vehicle: saline).

Turning to `CN(C)C(=S)Oc1ccc(OC(=S)N(C)C)cc1`, the T/C under setting [6] was 100 % of control, the T/C under setting [7] was 95 % of control and the T/C under setting [8] is 100 % of control.
